In ChEMBL document CHEMBL2021875, “Anthracyclinones from Micromonospora sp” (J Nat Prod, 2012):

System: HCT-8
Assay: Cytotoxicity against human HCT8 cells after 72 hrs by MTT assay
Format: functional, cell-based
Conditions: HCT-8, 72 h

Work on CCCc1ccc2c(c1)C(=O)c1cc3cccc(OC)c3cc1C2=O yielded an IC50 of over 70 µM.

With CCCc1ccc2c(O)c3c(c(O)c2c1)C(=O)c1cccc(O)c1C3=O the IC50 was 12.7 µM.

COc1cccc2c1C(=O)c1c(O)c3c(c(O)c1C2=O)C[C@@](O)(C(=O)CO)C[C@@H]3O[C@H]1C[C@H](N)[C@H](O)[C@H](C)O1 [DOXORUBICIN] was tested, and the IC50 was 0.1 µM.

CCC[C@@]1(O)C[C@H](O)c2c(O)c3c(c(O)c2[C@H]1C(=O)OC)C(=O)c1cccc(O)c1C3=O gave an IC50 of 6.2 µM.

CCC[C@@]1(O)CCC2=C(C1)C(=O)c1cc3cccc(OC)c3cc1C2=O showed an IC50 of over 70 µM.
